pIC50: −log10 of the molar value.
Molecular target: Mitogen-activated protein kinase kinase kinase kinase 1 (Homo sapiens, UniProt Q92918)
Test: Biochemical Enzyme Assay
Protocol: HPK1 biochemical enzyme assay: HPK1 enzyme inhibition was measured using a microfluidic mobility shift assay. […] Test compounds were titrated in ten point curves (top final assay concentration […]), and preincubated with enzyme/substrate mix for 30 min prior to initiation of the reaction by addition of ATP (1 mM final concentration) and substrate ([…] final concentration; Carna Biosciences) diluted in assay buffer supplemented by MgCl2 (final assay concentration of 5 mM). Following 60 min incubation at RT, the reaction was terminated by addition of 60 µl/well termination buffer (Carna Biosciences) and signal determination using a Caliper EZ Reader (Perkin Elmer, UK).

Mitogen-activated protein kinase kinase kinase kinase 1, sequence (Q92918 whole entry): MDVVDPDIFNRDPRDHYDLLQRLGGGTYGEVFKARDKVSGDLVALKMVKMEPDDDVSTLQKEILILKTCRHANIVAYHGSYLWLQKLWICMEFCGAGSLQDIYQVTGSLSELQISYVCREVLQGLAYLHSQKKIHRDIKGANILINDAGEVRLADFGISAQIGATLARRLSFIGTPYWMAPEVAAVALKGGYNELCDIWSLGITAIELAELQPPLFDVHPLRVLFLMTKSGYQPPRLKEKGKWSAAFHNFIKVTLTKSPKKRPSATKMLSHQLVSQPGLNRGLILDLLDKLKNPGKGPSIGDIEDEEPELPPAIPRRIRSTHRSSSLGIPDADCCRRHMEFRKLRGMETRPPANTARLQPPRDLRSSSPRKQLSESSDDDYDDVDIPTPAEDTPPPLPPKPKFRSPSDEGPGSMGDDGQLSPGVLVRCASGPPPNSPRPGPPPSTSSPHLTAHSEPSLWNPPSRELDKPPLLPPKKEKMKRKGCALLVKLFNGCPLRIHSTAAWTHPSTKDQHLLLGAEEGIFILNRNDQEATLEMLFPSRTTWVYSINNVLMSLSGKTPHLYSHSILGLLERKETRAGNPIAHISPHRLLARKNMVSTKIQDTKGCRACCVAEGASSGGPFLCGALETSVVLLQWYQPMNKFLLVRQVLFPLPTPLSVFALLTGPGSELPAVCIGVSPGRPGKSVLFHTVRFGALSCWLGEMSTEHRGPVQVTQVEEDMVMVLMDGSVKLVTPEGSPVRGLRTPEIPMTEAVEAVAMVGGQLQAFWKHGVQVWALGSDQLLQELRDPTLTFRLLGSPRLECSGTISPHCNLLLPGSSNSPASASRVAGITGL

Compound	IC50	pIC50
CCOc1c(C#N)cnn2c(-c3ccc(Nc4ccc(N5CCC(O)CC5)cn4)c4c3CNC4=O)cnc12 [US11028085, Compound I-185]	in the range around 0.55 µM	–
CN1CC(c2ccn3c(-c4ccc(Nc5ccc(N6CCC(O)CC6)cc5)c5c4CNC5=O)cnc3c2)C1 [US11028085, Compound I-411]	–	> 7.00

— BindingDB's records for patent US11028085 (Nimbus Saturn, 2021)
